{"source": "patent US11524003B2", "about": "“Alpha-amino esters of hydroxypropylthiazolidine carboxamide derivative and salt form, crystal polymorph thereof” (ObsEva S.A., priority 2016, dated 2022)", "key": {"[1]": {"test_system": "RU486-induced parturition", "assay": "RU486-induced preterm parturition in CD-1 mice", "description": "(§1) Tocolytic effects were assessed by measuring the time from induction to delivery of the first pup for each mouse in the treatment and control cohorts, the time from time from induction to completion of delivery among all mice in each cohort, and viability of offspring among mice in each cohort. The inducers of preterm parturition used in this study were RU486 (also referred to as mifepristone), a steroidal antiprogestin that promotes cervical dilatation and provokes enhanced uterine contractility and sensitivity to prostaglandins, and lipopolysaccharide (LPS), a mediator of inflammation.\n(§2) To induce labor at an early gestational age, a single dose of RU486 was administered to each mouse subcutaneously at 2.5 mg/kg (t=0). Mice treated with LPS received a single intraperitoneal injection of LPS at 2 mg/kg (t=0). Atosiban was administered to CD-1 mice by subcutaneous injection at 300 mg/kg at two distinct sites. These injections were performed at 5 hours (t=5) and 29 hours (t=29) following treatment with the inducing agent RU486 or LPS. […] Compound III was administered to CD-1 mice orally at either 10 mg/kg, 30 mg/kg, or 100 mg/kg at 5 hours (t=5), 19 hours (t=19), 29 hours (t=29), and 43 hours (t=43) following treatment with the inducing agent RU486 or LPS. […] The viability of pups delivered in each cohort was assessed by galenic hydrostatic pulmonary docimasy."}, "LPS-induced parturition": {"test_system": "LPS-induced parturition", "format": "in vivo", "conditions": "LPS-treated mice", "description": "as §1, §2"}, "[2]": {"assay": "Aqueous solubility of compound I salts (FIG. 8)", "format": "physicochemical", "conditions": "water"}, "[3]": {"assay": "Moisture sorption/desorption and relative humidity stability of compound I salts", "format": "physicochemical", "conditions": "for Hygroscopicity: moisture balance data, hydrochloride", "description": "Moisture sorption/desorption (MB) data were collected on a VTI SGA-100 Vapor Sorption Analyzer. Sorption and desorption data were collected over a range of 5% to 95% relative humidity (RH) at 10% RH intervals under a nitrogen purge. Samples were not dried prior to analysis. Equilibrium criteria used for analysis were less than 0.0100% weight change in 5 minutes, with a maximum equilibration time of 3 hours if the weight criterion was not met. Data were not corrected for the initial moisture content of the samples. NaCl and PVP were used as calibration standards."}, "[4]": {"conditions": "nifedipine 5 mg/kg oral, compound III 10 mg/kg oral, alone or combined"}}, "note": "Entries after “also recorded” stand apart in the source; their conditions may differ. Counter-ions that a name gives are not always drawn. Like-named read-outs stand apart in the source and are kept apart here. Where a SMILES comes first, the peptide text is derived from it. Bridges are numbered along the chain shown (N, C = ends). [ ]: non-standard residue; d: D form. Orn = NCCC[C@H](N)C(=O)O; Mpa = O=C(O)CCS", "data": [{"smiles": "CC#C[C@]1(O)CC[C@H]2[C@@H]3CCC4=CC(=O)CCC4=C3[C@@H](c3ccc(N(C)C)cc3)C[C@@]21C", "note": "[RU486, mifepristone]", "values": [{"measurement": "Mean delivery time following induction", "setting": "[1]; RU486 2.5 mg/kg s.c. at gestational age 17 days", "result": "21 ± 1.00", "unit": "h"}, {"measurement": "Mice excluded due to death or sacrifice during the study", "setting": "[1]; female, CD-1, mouse, in vivo, 2.5 mg/kg", "result": 3, "unit": "%"}, {"measurement": "Pups delivered alive", "setting": "[1]; inducer alone", "result": 96, "unit": "%"}]}, {"smiles": "CCOc1ccc(C[C@H]2NC(=O)CCSSC[C@@H](C(=O)N3CCC[C@H]3C(=O)N[C@@H](CCCN)C(=O)NCC(N)=O)NC(=O)[C@H](CC(N)=O)NC(=O)[C@H]([C@@H](C)O)NC(=O)[C@H]([C@@H](C)CC)NC2=O)cc1", "note": "[atosiban, reference compound] ([Mpa][dY](Et)ITNCP[Orn]G-NH2; disulfide 1-6)", "values": [{"measurement": "Effect on time to delivery", "setting": "LPS-induced parturition", "result": "increase in time to delivery"}, {"measurement": "Time to delivery", "setting": "LPS-induced parturition; atosiban 300 mg/kg s.c., compound III 100 mg/kg oral, alone or combined", "result": "28.41 ± 2.99", "unit": "h"}]}, {"smiles": "COC(=O)C1=C(C)NC(C)=C(C(=O)OC)C1c1ccccc1[N+](=O)[O-]", "note": "[nifedipine, reference compound]", "values": [{"measurement": "Fractional viability of offspring", "setting": "LPS-induced parturition; [4]", "result": "90.39%±5.34%"}]}, {"smiles": "CC(C)[C@H](N)C(=O)OCC[C@H](NC(=O)[C@@H]1SCCN1S(=O)(=O)c1ccc(-c2ccccc2)cc1)c1ccc(F)cc1", "note": "[Compound III, (3S)-3-({[(2S)-3-(biphenyl-4-ylsulfonyl)-1,3-thiazolidin-2-yl]carbonyl}-amino)-3-(4-fluorophenyl)propyl L-valinate hydrochloride]", "values": [{"measurement": "Effect on time to delivery", "setting": "[1]; RU486-treated mice", "result": "increase in time to delivery compared to vehicle"}, {"measurement": "Time to delivery", "setting": "[1]; RU486-treated mice, nifedipine 5 mg/kg oral, compound III 100 mg/kg oral, alone or combined", "result": "23.70 ± 0.60", "unit": "h"}, {"measurement": "Effect on fractional viability of offspring", "setting": "LPS-induced parturition", "result": "dose-dependent increase in the fractional viability of offspring"}, {"measurement": "Fractional viability of offspring", "setting": "LPS-induced parturition; compound III 100 mg/kg oral", "result": "69.41%±15.76%"}, {"measurement": "Fractional viability of offspring", "setting": "LPS-induced parturition; [4]", "result": "57.90%±14.89%"}, {"measurement": "Time to delivery", "setting": "LPS-induced parturition; [4]", "result": "23.98 ± 0.66", "unit": "h"}, {"measurement": "solubility", "setting": "[2]", "result": "< 1000", "unit": "µg/mL"}, {"measurement": "Stability at elevated relative humidity", "setting": "[3]", "result": "extended stability at elevated relative humidity"}, {"measurement": "Weight loss upon desorption", "setting": "[3]", "result": "approximately 0.7%"}, {"measurement": "Deliquescence at approximately 95% RH", "setting": "[3]; 2 days, approximately 95% RH", "result": "did not deliquesce"}, {"measurement": "Weight gain on sorption", "setting": "[3]; from 5 to 95% relative humidity", "result": "Approximately 0.9%"}, {"measurement": "Hygroscopicity", "setting": "[3]", "result": "low hygroscopicity"}, {"measurement": "Hygroscopicity", "setting": "[3]; listed as chloride salt", "result": "non-hygroscopic"}, {"measurement": "Hygroscopicity", "setting": "[3]; listed as hydrochloride salt", "result": "low hygroscopicity; also recorded: non-hygroscopic"}]}]}
